This is an account of results in patent US20040106626A1, “6-Membered unsaturated heterocyclic compounds useful for selective inhibition of the coagulation cascade” (Pharmacia Corporation, priority 2001, published 2004).

Holding throughout (type): biochemical
One test concerns the target T1, Human factor Xa (Homo sapiens, UniProt P00742).
T1 construct: purchased Enzyme Research Laboratories, South Bend Ind
The test can be described thus: Xa assay (chromogenic substrate S-2765). The settings on record: reported only as less than or greater than 30 uM; read-out: Factor Xa (II) IC50. The procedure:
Human factor Xa (0.3 nM) and 0.15 mM -a-Benzyloxycarbonyl-D-arginyl-L-glycyl-L-arginine-p-nitroaniline-dihydrochloride (S-2765) are added to a 96-well assay plate containing either inhibitor or buffer (50 mM Tris-HCl, pH 8.0, 100 mM NaCl, 0.1% BSA). The reaction, in a final volume of 100 ul is measured immediately at 405 nm to determine background absorbance. The plate is incubated at room temperature for 60 min, at which time the rate of hydrolysis of the substrate is measured by monitoring the reaction at 405 nm for the release of p-nitroaniline. Percent inhibition of Xa activity is calculated from OD405 nm value from the experimental and control sample.
Recombinant soluble TF, consisting of amino acids 1-219 of the mature protein sequence was expressed in E. coli and purified using a Mono Q Sepharose FPLC. Recombinant human VIIa was purchased from American Diagnostica, Greenwich CT and chromogenic substrate N-methylsulfonyl-D-phe-gly-arg-p-nitroaniline was prepared by American Peptide Company, Inc., Sunnyvale, Calif. Factor Xa was obtained from Enzyme Research Laboratories, South Bend Ind., thrombin from Calbiochem, La Jolla, Calif., and trypsin and L-BAPNA from Sigma, St. Louis Mo. The chromogenic substrates S-2765 and S-2238 were purchased from Chromogenix, Sweden.

The target in test [1] is T2, recombinant soluble tissue factor and recombinant human factor VIIa (TF-VIIa) (Homo sapiens, UniProt P08709).
T2 construct: conversion of coagulation factor VII to VIIa by factor Xa; purchased American Diagnostica, Greenwich CT; host or cells: soluble TF made in house in E. coli
T2 sequence (P08709 213-466 limits assumed): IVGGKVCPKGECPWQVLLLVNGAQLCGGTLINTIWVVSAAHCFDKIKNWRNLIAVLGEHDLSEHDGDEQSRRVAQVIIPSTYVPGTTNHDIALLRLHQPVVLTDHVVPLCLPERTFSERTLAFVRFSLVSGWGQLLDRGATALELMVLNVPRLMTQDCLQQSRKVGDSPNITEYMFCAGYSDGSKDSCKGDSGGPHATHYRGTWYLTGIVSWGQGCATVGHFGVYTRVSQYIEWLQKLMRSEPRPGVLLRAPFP
T2 sequence (P08709 61-212 limits assumed): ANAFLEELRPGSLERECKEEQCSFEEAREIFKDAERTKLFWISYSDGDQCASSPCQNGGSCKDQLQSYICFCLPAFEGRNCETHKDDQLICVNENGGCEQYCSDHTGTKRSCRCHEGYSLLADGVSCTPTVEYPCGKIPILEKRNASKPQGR
T2 sequence (P13726 33-251 partner limits assumed): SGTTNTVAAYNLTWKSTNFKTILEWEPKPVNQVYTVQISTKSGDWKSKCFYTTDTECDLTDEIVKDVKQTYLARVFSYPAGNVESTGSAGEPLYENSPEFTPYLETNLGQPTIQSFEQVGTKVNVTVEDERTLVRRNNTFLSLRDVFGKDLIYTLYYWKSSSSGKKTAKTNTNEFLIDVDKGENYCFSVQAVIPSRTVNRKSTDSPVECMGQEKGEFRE
Kind of test: TF-VIIa assay (chromogenic substrate hydrolysis). The settings on record: reported only as less than or greater than 0.1 uM. The procedure:
In this assay 100 nM recombinant soluble tissue factor and 2 nM recombinant human factor VIIa are added to a 96-well assay plate containing 0.4 mM of the substrate, N-methylsulfonyl-D-phe-gly-arg-p-nitroaniline and either inhibitor or buffer (5 mM CaCl2, 50 mM Tris-HCl, pH 8.0, 100 mM NaCl, 0.1% BSA). […] Percent inhibition of TF-VIIa activity is calculated from OD405 nm value from the experimental and control sample.
(§1) Recombinant human VIIa was purchased from American Diagnostica, Greenwich CT and chromogenic substrate N-methylsulfonyl-D-phe-gly-arg-p-nitroaniline was prepared by American Peptide Company, Inc., Sunnyvale, Calif. Factor Xa was obtained from Enzyme Research Laboratories, South Bend Ind., thrombin from Calbiochem, La Jolla, Calif., and trypsin and L-BAPNA from Sigma, St. Louis Mo.

Test [2] relates to Normal human pooled plasma. Kind of test: Prothrombin time (PT) clotting assay. The settings on record: concentration at which prothrombin time is prolonged by 2x normal, reported as less than or greater than 50 uM. The procedure: The prothrombin time (PT) assay is a clotting assay that is used to determine deficiencies of clotting factor activity in the extrinsic pathway. The assay measures time to clotting after the addition of thromboplastin (human tissue factor). Normal human pooled plasma is incubated with 100 uM compound or saline in a coagulation machine. Thromboplastin is added and time to clotting is measured. Compounds with greater than 3×normal PT of 11.0 seconds are further analyzed by concentration response to determine at what concentration the prothrombin time is prolonged by 2×normal.

The next test addresses T3, Human thrombin (Homo sapiens, UniProt P00734).
T3 construct: converts prothrombin (II) to thrombin (IIa); purchased Calbiochem, La Jolla, Calif
The test can be described thus: Thrombin assay (chromogenic substrate). Conditions: reported only as less than or greater than 30 uM; read-out: Thrombin (II) IC50. How it is done:
Percent inhibition of thrombin activity is calculated from OD405 nm value from the experimental and control sample.
as §1

T1 sequence (P00742 235-488 limits assumed): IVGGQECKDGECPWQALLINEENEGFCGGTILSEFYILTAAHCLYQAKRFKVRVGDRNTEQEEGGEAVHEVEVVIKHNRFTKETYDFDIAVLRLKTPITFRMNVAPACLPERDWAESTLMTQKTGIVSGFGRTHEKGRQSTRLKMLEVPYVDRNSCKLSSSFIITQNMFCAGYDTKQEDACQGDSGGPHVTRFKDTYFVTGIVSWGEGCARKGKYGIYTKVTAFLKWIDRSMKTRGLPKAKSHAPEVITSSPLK
T1 sequence (P00742 41-179 limits assumed): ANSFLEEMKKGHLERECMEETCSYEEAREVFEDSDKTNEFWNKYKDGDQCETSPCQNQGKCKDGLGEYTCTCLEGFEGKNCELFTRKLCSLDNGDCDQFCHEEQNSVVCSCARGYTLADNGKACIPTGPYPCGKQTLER

A word on the IC50: it is the point on the concentration scale where inhibition reaches its midpoint. For the compound `CC(C)Nc1nc(Br)c(-c2cc(N)cc(C(=O)O)c2)n(CC(=O)NCc2ccc(C(=N)N)cc2)c1=O` [Example 3, 3-Amino-5-[1-[2-({4-[amino(imino)methyl]benzyl}amino)-2-oxoethyl]-3-bromo-5-(isopropylamino)-6-oxo-1,6-dihydropyrazin-2-yl]benzoic Acid], the figures for the IC50 (on Human factor Xa; in test [1]) were > 30 µM and < 0.1 µM, respectively. Also, in test [2], the “PT (Prothrombin time) 2xPT” value is <50.0 µM.

On to `CC(C)Nc1ncc(-c2cc(N)cc(C(=O)O)c2)n(CC(=O)NCc2ccc(C(=N)N)cc2)c1=O` [Example 16, 3-amino-5-[1-[2-({4-[amino(imino)methyl]benzyl}amino)-2-oxoethyl]-5-(isopropylamino)-6-oxo-1,6-dihydropyrazin-2-yl]benzoic Acid Trifluoracetate], for which, in test [2], the “PT (Prothrombin time) 2xPT” value was <50.0 µM.

For `CC(C)Nc1ncc(-c2cc(N)cc(C(=O)NCc3cccc(F)c3)c2)n(CC(=O)NCc2ccc(C(=N)N)cc2)c1=O.O=C(O)C(F)(F)F.O=C(O)C(F)(F)F` [Example 29], the “PT (Prothrombin time) 2xPT” value in test [2] is <50.0 µM.

As for `CC[C@H](C)NC(=O)c1cc(N)cc(-c2cnc(NC(C)C)c(=O)n2CC(=O)NCc2ccc(C(=N)N)cc2)c1` [Example 71], the IC50 at Human thrombin is < 30 µM. The “PT (Prothrombin time) 2xPT” value in test [2] was <50.0 µM.

In the case of `CCC(C)NC(=O)c1cc(N)cc(-c2cnc(NC(C)C)c(=O)n2CC(=O)NCc2ccc(C(=N)N)c(O)c2)c1` (centres unmarked) [Example 115], in test [1], the IC50 is < 0.1 µM. For the same compound, the “PT (Prothrombin time) 2xPT” value in test [2] was <50.0 µM.

For `CC(C)Nc1ncc(-c2cc(N)cc(N)c2)n(CC(=O)NCc2cc(O)c(C(=N)N)c(F)c2)c1=O.O=C(O)C(F)(F)F` [Example 117], in test [2], the “PT (Prothrombin time) 2xPT” value is <50.0 µM.

Consider `CCCCNc1cc(N)cc(-c2cnc(NC(C)C)c(=O)n2CC(=O)NCc2ccc(C(=N)N)cc2)c1.O=C(O)C(F)(F)F.O=C(O)C(F)(F)F` [Example 145], for which the IC50 in test [1] is < 0.1 µM. For the same compound, the “PT (Prothrombin time) 2xPT” value in test [2] is <50.0 µM.

Turning to `CC(C)Nc1ncc(-c2cc(N)cc(NCC3CCNCC3)c2)n(CC(=O)NCc2ccc(C(=N)N)cc2)c1=O.O=C(O)C(F)(F)F.O=C(O)C(F)(F)F` [Example 146], the IC50 in test [1] is < 0.1 µM. The “PT (Prothrombin time) 2xPT” value in test [2] was <50.0 µM.

Consider `CC(C)Nc1ncc(-c2cc(N)cc(NCC3CCCNC3)c2)n(CC(=O)NCc2ccc(C(=N)N)cc2)c1=O.O=C(O)C(F)(F)F.O=C(O)C(F)(F)F` (centres unmarked) [Example 147], for which the IC50 in test [1] was < 0.1 µM. The “PT (Prothrombin time) 2xPT” value in test [2] is <50.0 µM.

For `CC(C)Nc1ncc(-c2cc(N)cc(NC3CCCC3)c2)n(CC(=O)NCc2ccc(C(=N)N)cc2)c1=O.O=C(O)C(F)(F)F.O=C(O)C(F)(F)F` [Example 148], the IC50 in test [1] is < 0.1 µM. The “PT (Prothrombin time) 2xPT” value in test [2] is <50.0 µM.

Consider `CC(C)Nc1ncc(-c2cc(N)cc(NCC(C)(C)C)c2)n(CC(=O)NCc2ccc(C(=N)N)cc2)c1=O.O=C(O)C(F)(F)F.O=C(O)C(F)(F)F` [Example 152], for which the “PT (Prothrombin time) 2xPT” value in test [2] is <50.0 µM.

`CC(C)Nc1ncc(-c2cc(N)cc(NCCC(C)(C)C)c2)n(CC(=O)NCc2ccc(C(=N)N)cc2)c1=O.O=C(O)C(F)(F)F.O=C(O)C(F)(F)F` [Example 153]: the “PT (Prothrombin time) 2xPT” value in test [2] was <50.0 µM.

In the case of `CC(C)Nc1ncc(-c2cc(N)cc(C(F)(F)F)c2)n(CC(=O)NCc2ccc(C(=N)N)c(F)c2)c1=O.Cl` [Example 154, N-{4-[amino(imino)methyl]-3-fluorobenzyl}-2-[6-[3-amino-5-(trifluoromethyl)phenyl]-3-(isopropylamino)-2-oxopyrazin-1 (2H)-yl]acetamide], the “PT (Prothrombin time) 2xPT” value in test [2] is >50.0 µM.

For the compound `CC(C)Nc1nc(Cl)c(-c2cc(N)cc(O)c2)n(CC(=O)NCc2ccc(C(=N)N)cc2)c1=O.O=C(O)C(F)(F)F` [Example 178], the IC50 on Human factor Xa was > 30 µM; in test [1] it was < 0.1 µM. In addition, in test [2], the “PT (Prothrombin time) 2xPT” value was <50.0 µM.

`CC[C@H](C)NC(=O)c1cc(N)cc(-c2cnc(NC3CC3)c(=O)n2CC(=O)NCc2ccc(C(=N)N)cc2)c1` [Example 183]: the IC50 at Human factor Xa is > 30 µM; at Human thrombin, < 30 µM; in test [1], < 0.1 µM.

For the compound `CC[C@H](C)NC(=O)c1cc(N)cc(-c2cnc(NC3CC3)c(=O)n2CC(=O)NCc2ccc(C(=N)N)cc2)c1.O=C(O)C(F)(F)F.O=C(O)C(F)(F)F` [Example 184], the IC50 on Human thrombin is < 30 µM. Besides, the “PT (Prothrombin time) 2xPT” value in test [2] is <50.0 µM.

In the case of `CC[C@H](C)NC(=O)c1cc(N)cc(-c2cnc(NC(C)C)c(=O)n2CC(=O)NCc2c(OC)cc(C(=N)N)cc2OC)c1` [Example 196], the IC50 is > 30 µM at Human factor Xa, > 30 µM at Human thrombin and > 0.1 µM in test [1].

Regarding `CC[C@@H](C)NC(=O)c1cc(N)cc(-c2cnc(NC(C)C)c(=O)n2CC(=O)NCc2c(OC)cc(C(=N)N)cc2OC)c1` [Example 197], the IC50 was > 30 µM at Human factor Xa, > 30 µM at Human thrombin and > 0.1 µM in test [1].

`COCCOCCOCCOC(=O)c1cc(N)cc(-c2cnc(NC(C)C)c(=O)n2CC(=O)NCc2ccc(C(=N)N)cc2)c1` [Example 200]: the IC50 is > 30 µM on Human factor Xa, > 30 µM on Human thrombin and < 0.1 µM in test [1].

`COCCOCCOCCOCCOCCOCCOC(=O)c1cc(N)cc(-c2cnc(NC(C)C)c(=O)n2CC(=O)NCc2ccc(C(=N)N)cc2)c1` [Example 201]: the values for the IC50 (on Human factor Xa; at Human thrombin; in test [1]) were > 30 µM, > 30 µM and < 0.1 µM, respectively.

In the case of `CC[C@H](C)NC(=O)c1cc(N)cc(-c2cnc(N[C@@H](C)CO)c(=O)n2CC(=O)NCc2ccc(C(=N)N)cc2)c1` [Example 208], the IC50 at Human factor Xa is > 30 µM; on Human thrombin it was < 30 µM; in test [1], < 0.1 µM.

Regarding `CC(C)Nc1ncc(-c2cc(N)cc(OC(C)C(=O)O)c2)n(CC(=O)NCc2ccc(C(=N)N)cc2)c1=O` (centres unmarked) [Example 226], the IC50 at Human factor Xa was > 30 µM; at Human thrombin, > 30 µM; in test [1], < 0.1 µM.

In the case of `CC[C@H](C)NC(=O)c1cc(N)cc(-c2cnc(NC(C)C)c(=O)n2CC(=O)NCc2c(O)cc(C(=N)N)cc2OCc2ccccc2)c1` [Example 242], the IC50 at Human factor Xa is > 30 µM; on Human thrombin it was > 30 µM; in test [1], < 0.1 µM.

`CC(C)Nc1ncc(-c2cc(N)c3[nH]ccc3c2)n(CC(=O)NCc2ccc(C(=N)N)cc2)c1=O.O=C(O)C(F)(F)F.O=C(O)C(F)(F)F` [Example 249]: the figures for the IC50 (at Human thrombin; in test [1]) were > 30 µM and < 0.1 µM, respectively. The “PT (Prothrombin time) 2xPT” value in test [2] is <50.0 µM.

As to `N=C(N)c1ccc(CNC(=O)Cn2c(-c3cc(N)cc(C(=O)OCc4ccccc4)c3)cnc(NC3CC3)c2=O)cc1.O=C(O)C(F)(F)F` [Example 251], the results for the IC50 (on Human thrombin; in test [1]) were > 30 µM and < 0.1 µM, respectively. The “PT (Prothrombin time) 2xPT” value in test [2] is <50.0 µM.

With `CC[C@@H](C)NC(=O)c1cc(N)cc(-c2cnc(NC(C)(C)C)c(=O)n2CC(=O)NCc2ccc(C(=N)N)cc2)c1` [Example 256, 3-amino-5-[1-[2-({4-[amino(imino)methyl]benzyl}amino)-2-oxoethyl]-5-(tert-butylamino)-6-oxo-1,6-dihydropyrazin-2-yl]-N-[(lR)-1-methylpropyl]benzamide bis(trifluoroacetate)], the IC50 was > 30 µM at Human factor Xa, < 30 µM on Human thrombin and < 0.1 µM in test [1].

On to `CC[C@H](C)NC(=O)c1cc(N)cc(-c2cnc(NC)c(=O)n2CC(=O)NCc2ccc(C(=N)N)cc2)c1` [Example 257], for which the figures for the IC50 (at Human factor Xa; at Human thrombin; in test [1]) were > 30 µM, > 30 µM and < 0.1 µM, respectively.

`CC[C@@H](C)NC(=O)c1cc(N)cc(-c2cnc(NC3CC3)c(=O)n2CC(=O)NCc2ccc(C(=N)N)cc2)c1` [Example 258]: the IC50 at Human factor Xa was > 30 µM; at Human thrombin, < 30 µM; in test [1] it was < 0.1 µM.
